Patent publication US20080255192A1, “Methods and Compositions for Selectin Inhibition” (Wyeth, priority 2007, published 2008)

Biological target: T1, P-selectin/PSGL-1 interaction (Homo sapiens, UniProt P16109)
T1 construct: comprised of the lectin and epidermal growth factor-like (EGF) domains expressed in CHO cells; made in house; host or cells: CHO cells (P-LE)
T1 sequence (P16109 42-198): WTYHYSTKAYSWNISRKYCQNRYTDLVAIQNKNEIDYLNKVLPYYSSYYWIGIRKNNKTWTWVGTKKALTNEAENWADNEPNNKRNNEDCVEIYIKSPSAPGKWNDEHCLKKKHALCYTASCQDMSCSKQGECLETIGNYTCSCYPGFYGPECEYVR
Assay: Biacore P-Selectin/PSGL-1 Inhibition Assay (surface plasmon resonance)
Type: binding
Details: 250 uM test compound, 500 nM P.LE, immobilized PSGL-1 19ek, 10% DMSO, pH 7.4
Protocol: Surface plasmon resonance assays were performed on a Biacore 3000 instrument (Biacore Inc. Piscataway, N.J.) at 25° C. at a flow rate of 30 μL/minute and each assay consisted of a 60-second equilibration, a 60-μL sample injection (kinject), and a 300-second dissociation.
A purified, monomeric, truncated form of human PSGL-1, “19ek”, that contained all the necessary P-selectin binding determinants (see Goetz, et al., J. Cell Biol., 1997, 137: 509-519; and Sako, et al., Cell, 1995, 83: 323-331) was biotinylated via amine chemistry (Sulfo-NHS-LC-Biotin, Peirce) at a unique C-terminal lysine residue (see Somers, et al., Cell, 2000, 103: 467-479) and immobilized on a Biacore SA sensor chip (Biacore Inc.), using an HBS-EP buffer (Biacore Inc.), and the target 600-700 RU. The coated chip was re-equilibrated with an HBS-P buffer (Biacore Inc.) to which 1 mM CaCl2 and 1 mM MgCl2 (both from Fisher) were added to ensure sufficient calcium for the calcium-dependent interaction between the receptor and the ligand.
Test compounds were incubated for 1 hour in a 1.1× Biacore assay buffer. Each solution was centrifuged through a 0.2 µm filter, using a 96-well plate format (Millipore). Glycyrrhizin tri-sodium salt (TCI) was prepared as a positive control in parallel with the test compounds, in the same manner described above.
A soluble recombinant truncated form of human P-selectin, P-LE, comprised of the lectin and epidermal growth factor-like (EGF) domains expressed in CHO cells (see Somers, et al., Cell, 2000, 103: 467-479) was added to each filtered test compound solution. Final concentrations of reagents were 500 nM P.LE, 250 or 500 μM test compound (depending on structure) or 1 mM glycyrrhizin, 10% DMSO, and 1× Biacore buffer ([…], 150 mM NaCl, 1 mM CaCl2, and 1 mM MgCl2 (all reagents from Fisher)), with a pH of 7.4. Compounds active at 250 μM were titrated to further define activity. Test samples were supplied to the Biacore instrument in a 96-well plate.
The Biacore raw data file was exported as a text file to an Excel spreadsheet, where the buffer blanks bracketing the samples were averaged for each Biacore instrument flow cell (Fc), and subtracted from the averaged uninhibited P.LE samples and from all the other samples. The reference signal from Fcl (uncoated) was then subtracted from its corresponding active (coated) signal for each injection, a process known as double referencing (see Myszka, J. Mol. Recognit., 1999, 12(5): 279-284). The percent inhibition of binding was calculated by dividing the reference-subtracted inhibited signal by the reference-subtracted uninhibited signal, subtracting this value from 1, and multiplying the resulting value by 100. The replicate percent inhibition values were averaged and expressed as the mean ±standard deviation. The inter-experiment standard deviation of calculated percent inhibitions in the Biacore assay was ±5.

Row | inhibition at 250 µM [%] | SMILES
1 | 18 | CCC(C)c1cccc2c(C(=O)O)c(O)c(C3(c4ccc(Cl)cc4)CC3)nc12 (stereo not drawn) [Compound 3, 8-sec-butyl-2-(1-(4-chlorophenyl)cyclopropyl)-3-hydroxyquinoline-4-carboxylic acid]
2 | 98 | O=C(O)c1c(O)c(C2(c3ccc(Cl)cc3)CC2)nc2c(-c3ccccc3)cccc12 [Compound 6, 2-(1-(4-chlorophenyl)cyclopropyl)-3-hydroxy-8-phenylquinoline-4-carboxylic acid]
3 | ≤ 10 | O=C(O)c1c(O)c(C2(c3ccc(Cl)cc3)CC2)nc2ccccc12 [Compound 8, 2-(1-(4-chlorophenyl)cyclopropyl)-3-hydroxyquinoline-4-carboxylic acid]
4 | 46 | O=C(O)c1c(O)c(C2(c3ccc(Cl)cc3)CC2)nc2c(Br)cccc12 [Compound 9, 8-bromo-2-(1-(4-chlorophenyl)cyclopropyl)-3-hydroxyquinoline-4-carboxylic acid]
5 | 43 | Cc1cccc2c(C(=O)O)c(O)c(C3(c4ccc(Cl)cc4)CC3)nc12 [Compound 11, 2-(1-(4-chlorophenyl)cyclopropyl)-3-hydroxy-8-methylquinoline-4-carboxylic acid]
6 | 13 | CCc1ccc2c(C(=O)O)c(O)c(C3(c4ccc(Cl)cc4)CC3)nc2c1 [Compound 12, 2-(1-(4-chlorophenyl)cyclopropyl)-7-ethyl-3-hydroxyquinoline-4-carboxylic acid]
7 | ≤ 10 | Cc1ccc2c(C(=O)O)c(O)c(C3(c4ccc(Cl)cc4)CC3)nc2c1 [Compound 13, 2-(1-(4-chlorophenyl)cyclopropyl)-3-hydroxy-7-methylquinoline-4-carboxylic acid]
8 | ≤ 10 | O=C(O)c1c(O)c(C2(c3ccc(Cl)cc3)CC2)nc2ccc(F)cc12 [Compound 17, 2-(1-(4-chlorophenyl)cyclopropyl)-6-fluoro-3-hydroxyquinoline-4-carboxylic acid]
9 | 14 | CC(C)c1ccc2nc(C3(c4ccc(Cl)cc4)CC3)c(O)c(C(=O)O)c2c1 [Compound 25, 2-(1-(4-chlorophenyl)cyclopropyl)-3-hydroxy-6-isopropylquinoline-4-carboxylic acid]
10 | ≤ 10 | O=C(O)c1c(O)c(C2(c3ccccc3)CC2)nc2cc(Cl)ccc12 [Compound 26, 7-chloro-3-hydroxy-2-(1-Phenylcyclopropyl)quinoline-4-carboxylic acid]
11 | ≤ 10 | CCc1ccc2nc(C3(c4ccccc4)CC3)c(O)c(C(=O)O)c2c1 [Compound 27, 6-ethyl-3-hydroxy-2-(1-phenylcyclopropyl)quinoline-4-carboxylic acid]
12 | 10 | O=C(O)c1c(O)c(C2(c3ccccc3)CC2)nc2ccc(OC(F)(F)F)cc12 [Compound 29, 3-hydroxy-2-(1-phenylcyclopropyl)-6-(trifluoromethoxy)quinoline-4-carboxylic acid]
13 | ≤ 10 | O=C(O)c1c(O)c(C2(c3ccccc3)CC2)nc2ccc(Cl)cc12 [Compound 30, 6-chloro-3-hydroxy-2-(1-phenylcyclopropyl)quinoline-4-carboxylic acid]

Second part, the compound before the results:

Row | SMILES | inhibition at 250 µM [%]
14 | O=C(O)c1c(O)c(C2(c3ccc(Cl)cc3)CC2)nc2c(OC(F)(F)F)cccc12 [Compound 1, 2-(1-(4-chlorophenyl)cyclopropyl)-3-hydroxy-8-(trifluoromethoxy)quinoline-4-carboxylic acid] | 37
15 | CCc1cccc2c(C(=O)O)c(O)c(C3(c4ccc(Cl)cc4)CC3)nc12 [Compound 2, 2-(1-(4-chlorophenyl)cyclopropyl)-8-ethyl-3-hydroxyquinoline-4-carboxylic acid] | 67
16 | CC(C)(C)c1cccc2c(C(=O)O)c(O)c(C3(c4ccc(Cl)cc4)CC3)nc12 [Compound 4, 8-tert-butyl-2-(1-(4-chlorophenyl)cyclopropyl)-3-hydroxyquinoline-4-carboxylic acid] | ≤ 10
17 | O=C(O)c1c(O)c(C2(c3ccc(Cl)cc3)CC2)nc2c(Cl)cccc12 [Compound 5, 8-chloro-2-(1-(4-chlorophenyl)cyclopropyl)-3-hydroxyquinoline-4-carboxylic acid] | 93
18 | O=C(O)c1c(O)c(C2(c3ccc(Cl)cc3)CC2)nc2c(F)cccc12 [Compound 7, 2-(1-(4-chlorophenyl)cyclopropyl)-8-fluoro-3-hydroxyquinoline-4-carboxylic acid] | ≤ 10
19 | Cc1cc(C)c2nc(C3(c4ccc(Cl)cc4)CC3)c(O)c(C(=O)O)c2c1 [Compound 10, 2-(1-(4-chlorophenyl)cyclopropyl)-3-hydroxy-6,8-dimethylquinoline-4-carboxylic acid] | 47
20 | CCc1cccc2c(C(=O)O)c(O)c(C3(c4ccccc4)CC3)nc12 [Compound 14, 8-ethyl-3-hydroxy-2-(1-phenylcyclopropyl)quinoline-4-carboxylic acid] | 23
21 | CCC(C)c1cccc2c(C(=O)O)c(O)c(C3(c4ccccc4)CC3)nc12 (stereo not drawn) [Compound 15, 8-sec-butyl-3-hydroxy-2-(1-phenylcyclopropyl)quinoline-4-carboxylic acid] | 63
22 | O=C(O)c1c(O)c(C2(c3ccc(Cl)cc3)CC2)nc2cc(Cl)ccc12 [Compound 16, 7-chloro-2-(1-(4-chlorophenyl)cyclopropyl)-3-hydroxyquinoline-4-carboxylic acid] | 28
23 | O=C(O)c1c(O)c(C2(c3ccc(Cl)cc3)CC2)nc2ccc(Br)cc12 [Compound 18, 6-bromo-2-(1-(4-chlorophenyl)cyclopropyl)-3-hydroxyquinoline-4-carboxylic acid] | 28
24 | Cc1ccc2nc(C3(c4ccc(Cl)cc4)CC3)c(O)c(C(=O)O)c2c1 [Compound 19, 2-(1-(4-chlorophenyl)cyclopropyl)-3-hydroxy-6-methylquinoline-4-carboxylic acid] | ≤ 10
25 | COc1ccc2nc(C3(c4ccc(Cl)cc4)CC3)c(O)c(C(=O)O)c2c1 [Compound 20, 2-(1-(4-chlorophenyl)cyclopropyl)-3-hydroxy-6-methoxyquinoline-4-carboxylic acid] | ≤ 10
26 | O=C(O)c1c(O)c(C2(c3ccc(Cl)cc3)CC2)nc2ccc(OC(F)(F)F)cc12 [Compound 21, 2-(1-(4-chlorophenyl)cyclopropyl)-3-hydroxy-6-(trifluoromethoxy)quinoline-4-carboxylic acid] | 28
27 | O=C(O)c1c(O)c(C2(c3ccc(Cl)cc3)CC2)nc2ccc(Cl)cc12 [Compound 22, 6-chloro-2-(1-(4-chlorophenyl)cyclopropyl)-3-hydroxyquinoline-4-carboxylic acid] | 26
28 | O=C(O)c1c(O)c(C2(c3ccc(Cl)cc3)CC2)nc2ccc(O)cc12 [Compound 23, 2-(1-(4-chlorophenyl)cyclopropyl)-3,6-dihydroxyquinoline-4-carboxylic acid] | ≤ 10
29 | O=C(O)c1c(O)c(C2(c3ccc(Cl)cc3)CC2)nc2ccc(C(F)(F)F)cc12 [Compound 24, 2-(1-(4-chlorophenyl)cyclopropyl)-3-hydroxy-6-(trifluoromethyl)quinoline-4-carboxylic acid] | 34
30 | CCc1ccc2c(C(=O)O)c(O)c(C3(c4ccccc4)CC3)nc2c1 [Compound 28, 7-ethyl-3-hydroxy-2-(1-phenylcyclopropyl)quinoline-4-carboxylic acid] | ≤ 10
